The record followed here is US20100137313A1 (ASTRAZENECA AB, priority 2008, published 2010).

S. pneumoniae Topoisomerase IV ATPase (ParE), sequence (Q59961 whole entry): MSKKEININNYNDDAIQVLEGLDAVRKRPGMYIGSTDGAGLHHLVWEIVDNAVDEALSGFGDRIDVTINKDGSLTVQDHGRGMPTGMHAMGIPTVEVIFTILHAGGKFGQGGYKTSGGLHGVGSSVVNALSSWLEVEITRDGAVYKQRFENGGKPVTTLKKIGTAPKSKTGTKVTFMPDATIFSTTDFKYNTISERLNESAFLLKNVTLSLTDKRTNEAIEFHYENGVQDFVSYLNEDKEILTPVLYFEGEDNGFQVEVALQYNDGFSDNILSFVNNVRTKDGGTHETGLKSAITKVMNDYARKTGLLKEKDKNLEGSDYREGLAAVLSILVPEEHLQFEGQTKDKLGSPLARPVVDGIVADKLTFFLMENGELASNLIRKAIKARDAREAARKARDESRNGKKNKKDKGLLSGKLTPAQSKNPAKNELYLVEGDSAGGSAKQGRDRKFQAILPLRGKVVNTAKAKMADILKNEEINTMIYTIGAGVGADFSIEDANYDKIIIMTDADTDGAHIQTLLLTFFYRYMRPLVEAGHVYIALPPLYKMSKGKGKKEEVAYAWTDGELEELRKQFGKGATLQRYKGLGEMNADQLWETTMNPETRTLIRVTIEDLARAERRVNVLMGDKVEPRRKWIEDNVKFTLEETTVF

The assay addresses S. pneumoniae Topoisomerase IV ATPase (ParE) (Streptococcus pneumoniae serotype 4, UniProt Q59961). The experiment in a line: S. pneumoniae Topoisomerase IV ATPase inhibition. Type of assay: biochemical. To be noted: values marked * are an average of two or more data points, read-out: % Inh (13 μM) of S. pneumoniae Topoisomerase IV ATPase. A digest of the protocol: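 Phosphate release by ParE ATPase from S. pneumoniae read colorimetrically (malachite green, 650 nm), enzyme 1.25 nM, ATP 160 μM, salmon sperm DNA present, buffer 20 mM Tris pH 8.0 with 8 mM MgCl2. IC50 over 10 compound concentrations, EDTA (20 μM) and DMSO controls defining inhibition range.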
With `COc1ncc(-c2cnc(Nc3ccc(F)c(Cl)c3)nc2NCCCN(C)C)cn1` [Example 1, N^2-(3-chloro-4-fluorophenyl)-N^4-(3-(dimethylamino)propyl)-2′-methoxy-5,5′-bipyrimidine-2,4-diamine], the inhibition at 13 µM amounted to 5.14%.
Regarding `O=C(O)c1cncc(-c2cnc(Nc3ccc(F)c(Cl)c3)nc2NCCCc2nc3ccccc3[nH]2)c1` [Example 271, 5-(4-(3-(1H-benzo[d]imidazol-2-yl)propylamino)-2-(3-chloro-4-fluorophenylamino)-pyrimidin-5-yl)nicotinic acid], the inhibition at 13 µM came out at 86.6%.
For `CCS(=O)(=O)NC(=O)c1cc(-c2cnc(Nc3cc(C)cc(C)c3)nc2-n2ccc(C(F)(F)F)n2)cnc1OC` [Example 822, 5-{2-[(3,5-dimethylphenyl)amino]-4-[3-(trifluoromethyl)-1H-pyrazol-1-yl]pyrimidin-5-yl}-N-(ethylsulfonyl)-2-methoxypyridine-3-carboxamide], the inhibition at 13 µM amounted to 100%.
For `O=C(O)/C=C/c1cccc(-c2cnc(Nc3ccc(F)c(Cl)c3)nc2-n2ccnn2)c1` [Example 333, (2E)-3-(3-{2-[(3-chloro-4-fluorophenyl)amino]-4-(1H-1,2,3-triazol-1-yl)pyrimidin-5-yl}phenyl)prop-2-enoic acid], the inhibition at 13 µM is 69.8%.
With `Fc1ccc(Nc2ncc(-c3cncnc3)c(N3CCC3)n2)cc1Cl` [Example 67, 4-(azetidin-1-yl)-N-(3-chloro-4-fluorophenyl)-5-pyrimidin-5-ylpyrimidin-2-amine] the figure was 53.4%; with `COc1cccc(-c2cnc(Nc3ccc(F)c(Cl)c3)nc2-n2ccc(C(F)(F)F)n2)n1` [Example 876, N-(3-chloro-4-fluorophenyl)-5-(6-methoxypyridin-2-yl)-4-(3-(trifluoromethyl)-1H-pyrazol-1-yl)pyrimidin-2-amine], 0%.
Consider `CCOC(=O)c1cncc(-c2cnc(Nc3ccc(F)c(Cl)c3)nc2NCCNC(=O)OC(C)(C)C)c1` [Example 98, 5-[4-(2-tert-Butoxycarbonylamino-ethylamino)-2-(3-chloro-4-fluoro-phenylamino)-pyrimidin-5-yl]-nicotinic acid ethyl ester], for which the inhibition at 13 µM came to 59.4%.
For the compound `O=C(O)/C=C/c1cccc(-c2cnc(Nc3ccc(F)c(Cl)c3)nc2-n2ccc(-c3ccsc3)n2)c1` [Example 565, (2E)-3-(3-{2-[(3-chloro-4-fluorophenyl)amino]-4-[3-(thiophen-3-yl)-1H-pyrazol-1-yl]pyrimidin-5-yl}phenyl)prop-2-enoic acid], the inhibition at 13 µM was 100%.
With `COCCCNc1nc(Nc2ccc(F)c(Cl)c2)ncc1-c1nc(C)c(C(=O)OC)s1` [Example 505, methyl 2-{2-[(3-chloro-4-fluorophenyl)amino]-4-[(3-methoxypropyl)amino]pyrimidin-5-yl}-4-methyl-1,3-thiazole-5-carboxylate] the figure was 19%.
On to `O=C(O)c1cccc(-c2cnc(Nc3ccc(F)c(Cl)c3)nc2N2CCOCC2)c1` [Example 487, 3-{2-[(3-chloro-4-fluorophenyl)amino]-4-(morpholin-4-yl)pyrimidin-5-yl}benzoic acid], for which the inhibition at 13 µM stood at 84%.
With `CONC(=O)c1cc(-c2cnc(Nc3cc(OC)cc(OC)c3)nc2-n2ccc(C(F)(F)F)n2)cnc1OC` [Example 811, 5-{2-[(3,5-dimethoxyphenyl)amino]-4-[3-(trifluoromethyl)-1H-pyrazol-1-yl]pyrimidin-5-yl}-N,2-dimethoxypyridine-3-carboxamide] the figure was 100%.
With `O=C(O)c1cncc(-c2cnc(Nc3cccc(F)c3)nc2-n2ccc(C(F)(F)F)n2)c1` [Example 641, 5-{2-[(3-fluorophenyl)amino]-4-[3-(trifluoromethyl)-1H-pyrazol-1-yl]pyrimidin-5-yl}pyridine-3-carboxylic acid] the figure was 100%; with `Cc1cc(C(F)(F)F)nn1-c1nc(Nc2cc(F)cc(C#N)c2)ncc1-c1cncc(C(=O)O)c1` [Example 1121, 5-(2-(3-cyano-5-fluorophenylamino)-4-(5-methyl-3-(trifluoromethyl)-1H-pyrazol-1-yl)pyrimidin-5-yl)nicotinic acid], 99%; with `O=C(O)Cn1nccc1-c1cnc(Nc2ccc(F)c(Cl)c2)nc1-n1ccc(C(F)(F)F)n1` [Example 1137, 2-(5-(2-(3-chloro-4-fluorophenylamino)-4-(3-(trifluoromethyl)-1H-pyrazol-1-yl)pyrimidin-5-yl)-1H-pyrazol-1-yl)acetic acid], 100%.
In the case of `O=C(O)[C@@H]1CCCN1c1cccc(-c2cnc(Nc3ccc(F)c(Cl)c3)nc2-n2ccc(C(F)(F)F)n2)c1` [Example 599, 1-(3-{2-[(3-chloro-4-fluorophenyl)amino]-4-[3-(trifluoromethyl)-1H-pyrazol-1-yl]pyrimidin-5-yl}phenyl)-L-proline], the inhibition at 13 µM turned out to be 94%.
With `CCOC(=O)c1cncc(-c2cnc(Nc3ccc(F)c(Cl)c3)nc2N2CCC(OC)CC2)c1` [Example 122, ethyl 5-[2-[3-chloro-4-fluorophenyl)amino]-4-(4-methoxypiperidin-1-yl)pyrimidin-5-yl]pyridine-3-carboxylate] the figure was 57.9%; with `Cc1cc(C(F)(F)F)nn1-c1nc(Nc2ccc(F)c(Cl)c2)ncc1-c1ccc2c(c1)C(=O)NC2=O` [Example 1042, 5-(2-(3-Chloro-4-fluorophenylamino)-4-(5-methyl-3-(trifluoromethyl)-1H-pyrazol-1-yl)pyrimidin-5-yl)isoindoline-1,3-dione], 49%.
With `Fc1ccc(Nc2ncc(-c3cncnc3)c(NCCN3CCOCC3)n2)cc1Cl` [Example 43, N^2-(3-chloro-4-fluorophenyl)-N^4-(2-morpholin-4-ylethyl)-5-pyrimidin-5-ylpyrimidine-2,4-diamine] the figure was 74.3%; with `COc1cc(C)cc(Nc2ncc(-c3cnc(OC)c(-c4n[nH]c(=O)o4)c3)c(-n3ccc(C(F)(F)F)n3)n2)c1` [Example 1169, 5-(2-methoxy-5-{2-[(3-methoxy-5-methylphenyl)amino]-4-[3-(trifluoromethyl)-1H-pyrazol-1-yl]pyrimidin-5-yl}pyridin-3-yl)-1,3,4-oxadiazol-2(3H)-one], 100%; with `CCOC(=O)c1cncc(-c2cnc(Nc3ccc(F)c(Cl)c3)nc2NCc2ccco2)c1` [Example 110, ethyl 5-[2-[(3-chloro-4-fluorophenyl)amino]-4-(furan-2-ylmethylamino)pyrimidin-5-yl]pyridine-3-carboxylate], 27.6%.
With `COc1ncc(-c2cnc(Nc3ccc(F)c(Cl)c3)nc2NCc2ccncc2C)cn1` [Example 463, N2-(3-chloro-4-fluorophenyl)-2′-methoxy-N4-((3-methylpyridin-4-yl)methyl)-5,5′-bipyrimidine-2,4-diamine] the figure was 67%; with `O=C(O)/C=C/c1cccc(-c2cnc(Nc3ccc(F)c(Cl)c3)nc2-n2ccc(C(F)(F)F)n2)c1` [Example 323, (2E)-3-(3-{2-[(3-chloro-4-fluorophenyl)amino]-4-[3-(trifluoromethyl)-1H-pyrazol-1-yl]pyrimidin-5-yl}phenyl)prop-2-enoic acid], 99.5%; with `NC(=O)c1cncc(-c2cnc(Nc3ccc(F)c(Cl)c3)nc2-n2nc(C(F)F)cc2C(F)F)c1` [Example 539, 5-{4-[3,5-bis(difluoromnethyl)-1H-pyrazol-1-yl]-2-[(3-chloro-4-fluorophenyl)amino]pyrimidin-5-yl}pyridine-3-carboxamide], 100%.
`COCCCNc1nc(Nc2ccc(F)c(Cl)c2)ncc1-c1ccc(C(=O)O)s1` [Example 178, 5-(2-(3-chloro-4-fluorophenylamino)-4-(3-methoxypropylamino)-pyrimidin-5-yl)thiophene-2-carboxylic acid]: the inhibition at 13 µM was 83%.
`CN(C)CCCNc1nc(Nc2ccc(F)c(Cl)c2)ncc1-c1ccc2cc[nH]c2c1` [Example 4, N^2-(3-chloro-4-fluorophenyl)-N^4-(3-(dimethylamino)propyl)-5-(1H-indol-6-yl)pyrimidine-2,4-diamine]: the inhibition at 13 µM came to 93.1%.
With `CN1CCN(CCOc2ncc(-c3cnc(Nc4ccc(F)c(Cl)c4)nc3-n3ccc(C(F)(F)F)n3)cc2C(=O)O)CC1` [Example 962, 5-(2-(3-chloro-4-fluorophenylamino)-4-(3-(trifluoromethyl)-1H-pyrazol-1-yl)pyrimidin-5-yl)-2-(2-(4-methylpiperazin-1-yl)ethoxy)nicotinic acid] the figure was 98%.
In the case of `O=C(O)/C=C/c1cccc(-c2cnc(Nc3ccc(F)c(CO)c3)nc2N2CCOCC2)c1` [Example 516, (2E)-3-{3-[2-{[4-fluoro-3-(hydroxymethyl)phenyl]amino}-4-(morpholin-4-yl)pyrimidin-5-yl]phenyl}prop-2-enoic acid], the inhibition at 13 µM is 98%.
Turning to `COc1ncc(-c2cnc(Nc3cc(C)cc(C)c3)nc2-n2nc(C(F)(F)F)cc2C)cc1C(=O)NS(=O)(=O)C(C)C` [Example 827, 5-{2-[(3,5-dimethylphenyl)amino]-4-[5-methyl-3-(trifluoromethyl)-1H-pyrazol-1-yl]pyrimidin-5-yl}-2-methoxy-N-(propan-2-ylsulfonyl)pyridine-3-carboxamide], the inhibition at 13 µM turned out to be 100%.
Take `COc1cc(Nc2ncc(-c3cnc(OC)c(C(=O)NS(=O)(=O)C(C)C)c3)c(-n3ccc(C(F)(F)F)n3)n2)cc(OC)c1` [Example 818, 5-{2-[(3,5-dimethoxyphenyl)amino]-4-[3-(trifluoromethyl)-1H-pyrazol-1-yl]pyrimidin-5-yl}-2-methoxy-N-(propan-2-ylsulfonyl)pyridine-3-carboxamide]: the inhibition at 13 µM was 100%.
With `COC(=O)c1cccc(-c2cnc(Nc3ccc(F)c(Cl)c3)nc2NCCCN(C)C)c1` [Example 2, methyl 3-(2-(3-chloro-4-fluorophenylamino)-4-(3-(dimethylamino)propylamino)pyrimidin-5-yl)benzoate] the figure was 77.8%.
